Test results taken from patent publication US20090124672A1 (priority 2007, published 2009).

Target: T1, hALDH2 (recombinant human mitochondria ALDH) (Homo sapiens, UniProt P05091)
T1 sequence (P05091 18-517): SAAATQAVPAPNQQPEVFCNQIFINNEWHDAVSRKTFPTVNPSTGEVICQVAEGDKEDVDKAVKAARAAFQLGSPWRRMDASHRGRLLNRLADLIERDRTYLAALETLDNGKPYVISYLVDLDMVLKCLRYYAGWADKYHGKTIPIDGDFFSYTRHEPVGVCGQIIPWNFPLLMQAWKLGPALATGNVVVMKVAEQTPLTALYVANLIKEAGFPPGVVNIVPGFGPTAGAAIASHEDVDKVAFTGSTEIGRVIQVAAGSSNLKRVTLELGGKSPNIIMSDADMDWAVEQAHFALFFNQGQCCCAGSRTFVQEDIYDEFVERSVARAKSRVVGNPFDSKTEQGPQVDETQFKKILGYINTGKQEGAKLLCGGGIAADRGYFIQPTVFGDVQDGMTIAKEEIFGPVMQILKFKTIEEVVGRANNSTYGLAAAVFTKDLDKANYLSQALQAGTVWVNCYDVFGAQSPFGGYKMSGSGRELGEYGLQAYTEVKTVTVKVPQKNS
Test: ALDH2 inhibition assay (NADH formation, formaldehyde substrate)
Assay type: biochemical
Details: for inhibition at 1 µM: read-out: hALDH2 inhibition (IC50 hALDH2 column); for inhibition at 1 µM / hALDH2 inhibition (IC50 hALDH2 column): at 1 μM
Method: ALDH2 inhibition assays were performed in sodium phosphate buffer (50 mM, pH 7.4) containing 1.2 mM NAD^+ (Sigma N7004), 1 nM hALDH2 (recombinant human mitochondria ALDH), various concentrations of test compounds (from 0.03 nM to 1000 nM), and 0.15 mM freshly prepared formaldehyde solution (Ladd Research 20295). Reactions were initiated by the addition of formaldehyde and rates were recorded by monitoring NADH formation in a temperature controlled (25° C.) FluoroMax-2 Fluorimeter with excitation and emission wavelengths set at 340 and 460 nm, respectively. […] Normally, IC50 values were determined by fitting concentration-inhibition data to sigmoidal dose-response curves with two-floating parameters: IC50 and Hill coefficient. When tight binding situation was suspected, apparent Ki values were estimated by fitting dose-response data to Morrison's equation [Methods in Enzymology 63, 437-467, 1979].

IC50 | inhibition at 1 µM | Compound | further results
70 nM |  | O=C(COc1ccc2c(=O)c(-c3ccc(O)cc3)coc2c1)c1ccccc1C(F)(F)F [PT-85, 3-(4-hydroxyphenyl)-7-{2-oxo-2-[2-(trifluoromethyl)phenyl]ethoxy}chromen-4-one] | 
23 nM |  | CNC(=O)c1coc(COc2ccc3c(=O)c(-c4ccc(O)cc4)coc3c2)n1 [PT-118, (2-{[3-(4-hydroxyphenyl)-4-oxochromen-7-yloxy]methyl}(1,3-oxazol-4-yl))-N-methylcarboxamide] | 
 | 14% | NC(=O)c1ccc(-c2coc3cc(OCc4noc(-c5cc(F)cc(C(F)(F)F)c5)n4)ccc3c2=O)cc1 [PT-72, 4-[7-({5-[3-fluoro-5-(trifluoromethyl)phenyl](1,2,4-oxadiazol-3-yl)}methoxy)-4-oxochromen-3-yl]benzamide] | 
160 nM |  | O=c1c(-c2ccc(O)cc2)coc2cc(OCc3noc(-c4ccccc4)n3)ccc12 [PT-24, 3-(4-hydroxyphenyl)-7-[(5-phenyl(1,2,4-oxadiazol-3-yl))methoxy]chromen-4-one] | 
110 nM |  | 7-{2-[4-(4-chlorophenyl)pyrazolyl]ethoxy}-3-(4-hydroxyphenyl)chromen-4-one [PT-51] | 
10 nM |  | O=C(O)c1cccc(-c2nc(COc3ccc4c(=O)c(-c5ccc(O)cc5)coc4c3)no2)c1 [PT-41, 3-(3-{[3-(4-hydroxyphenyl)-4-oxochromen-7-yloxy]methyl}-1,2,4-oxadiazol-5-yl)benzoic acid] | 
17 nM |  | O=c1c(-c2ccc(OCc3ccccn3)cc2)coc2cc(OCc3ccccn3)ccc12 [PT-93, 7-(2-pyridylmethoxy)-3-[4-(2-pyridylmethoxy)phenyl]chromen-4-one] | 
270 nM |  | O=c1c(-c2ccc(O)cc2)coc2cc(OCc3nc(-c4ccc(Cl)cc4)no3)ccc12 [PT-44, 3-(4-hydroxyphenyl)-7-({3-[4-chlorophenyl](1,2,4-oxadiazol-5-yl)}methoxy)chromen-4-one] | 
122 nM |  | O=c1c(-c2ccc(O)cc2)coc2cc(OCc3cnc(-c4ccc(C(F)(F)F)cc4)s3)ccc12 [PT-77, 3-(4-hydroxyphenyl)-7-({2-[4-(trifluoromethyl)phenyl](1,3-thiazol-5-yl)}methoxy)chromen-4-one] | 
34 nM |  | O=c1c(-c2ccc(O)cc2)coc2cc(OCc3cccc(C(F)(F)F)c3)ccc12 [PT-26, 3-(4-hydroxyphenyl)-7-{[3-(trifluoromethyl)phenyl]methoxy}chromen-4-one] | 
 | 68% | O=c1c(-c2ccc3[nH]ncc3c2)coc2cc(OCc3noc(-c4cc(F)cc(C(F)(F)F)c4)n3)ccc12 [PT-86, 3-(1H-indazol-5-yl)-7-({5-[5-fluoro-3-(trifluoromethyl)phenyl](1,2,4-oxadiazol-3-yl)}methoxy)chromen-4-one] | 
16 nM |  | O=C(O)c1coc(COc2ccc3c(=O)c(-c4ccc(O)cc4)coc3c2)n1 [PT-102, 2-{[3-(4-hydroxyphenyl)-4-oxochromen-7-yloxy]methyl}-1,3-oxazole-4-carboxylic acid] | 
 | 57% | O=c1c(-c2ccc(O)cc2)coc2cc(OCc3cc(-c4ccc(Cl)cc4)on3)ccc12 [PT-95, 7-{[5-(4-chlorophenyl)isoxazol-3-yl]methoxy}-3-(4-hydroxyphenyl)chromen-4-one] | hALDH2 inhibition (IC50 hALDH2 column): 57%
47 nM |  | O=c1c(-c2ccc(O)cc2)coc2cc(OCc3coc(-c4ccc(F)cc4)n3)ccc12 [PT-16, 7-{[2-(4-fluorophenyl)(1,3-oxazol-4-yl)]methoxy}-3-(4-hydroxyphenyl)chromen-4-one] | 
 |  | O=c1c(-c2cn[nH]c2)coc2cc(OCc3noc(-c4cc(F)cc(C(F)(F)F)c4)n3)ccc12 [PT-75, 7-({5-[3-fluoro-5-(trifluoromethyl)phenyl](1,2,4-oxadiazol-3-yl)}methoxy)-3-(5-hydropyrazol-4-yl)chromen-4-one] | hALDH2 inhibition (IC50 hALDH2 column): 14%
 | 47% | O=c1c(-c2ccc(O)cc2)coc2cc(OCc3cc(-c4ccc(Cl)c(Cl)c4)on3)ccc12 [PT-96, 7-{[5-(3,4-dichlorophenyl)isoxazol-3-yl]methoxy}-3-(4-hydroxyphenyl)chromen-4-one] | 
5 nM |  | O=c1c(-c2ccc(O)cc2)coc2cc(OCCNCc3cccc(C(F)(F)F)c3)ccc12 [PT-99, 3-(4-hydroxyphenyl)-7-[2-({[3-(trifluoromethyl)phenyl]methyl}amino)ethoxy]chromen-4-one] | 
 | 57% | CS(=O)(=O)Nc1ccc(-c2coc3cc(OCc4nc(-c5cc(F)cc(C(F)(F)F)c5)no4)ccc3c2=O)cc1 [PT-8, 7-({3-[5-fluoro-3-(trifluoromethyl)phenyl](1,2,4-oxadiazol-5-yl)}methoxy)-3-{4-[(methylsulfonyl)amino]phenyl}chromen-4-one] | 
120 nM |  | O=c1c(-c2ccc(O)cc2)coc2cc(OCc3coc(-c4ccc(F)c(F)c4)n3)ccc12 [PT-15, 7-{[2-(3,4-difluorophenyl)(1,3-oxazol-4-yl)]methoxy}-3-(4-hydroxyphenyl)chromen-4-one] | 
10 nM |  | O=c1c(-c2ccc(O)cc2)coc2cc(OCc3noc(-c4cc(F)cc(C(F)(F)F)c4)n3)ccc12 [PT-29, 7-({5-[3-fluoro-5-(trifluoromethyl)phenyl](1,2,4-oxadiazol-3-yl)}methoxy)-3-(4-hydroxyphenyl)chromen-4-one] | 
200 nM |  | Cc1nc(-c2ccc(C(F)(F)F)cc2)sc1COc1ccc2c(=O)c(-c3ccc(O)cc3)coc2c1 [PT-4, 3-(4-hydroxyphenyl)-7-({4-methyl-2-[4-(trifluoromethyl)phenyl](1,3-thiazol-5-yl)}methoxy)chromen-4-one] | 
 | 75% | COC(=O)c1cccc(COc2ccc3c(=O)c(-c4ccc(CO)cc4)coc3c2)c1 [PT-7, methyl 3-({3-[4-(hydroxymethyl)phenyl]-4-oxochromen-7-yloxy}methyl)benzoate] | 
470 nM |  | O=c1c(-c2ccc(O)cc2)coc2cc(OCc3nc(-c4ccccc4)no3)ccc12 [PT-43, 3-(4-hydroxyphenyl)-7-[(3-phenyl(1,2,4-oxadiazol-5-yl))methoxy]chromen-4-one] | 
130 nM |  | O=c1c(-c2ccc(O)cc2)coc2cc(OCc3noc(-c4cc(C(F)(F)F)cc(C(F)(F)F)c4)n3)ccc12 [PT-39, 7-({5-[3,5-bis(trifluoromethyl)phenyl](1,2,4-oxadiazol-3-yl)}methoxy)-3-(4-hydroxyphenyl)chromen-4-one] | 
 | 17% | N#Cc1ccc(-c2coc3cc(OCc4noc(-c5cc(F)cc(C(F)(F)F)c5)n4)ccc3c2=O)cc1 [PT-1, 4-[7-({5-[3-fluoro-5-(trifluoromethyl)phenyl](1,2,4-oxadiazol-3-yl)}methoxy)-4-oxochromen-3-yl]benzenecarbonitrile] | 
11 nM |  | 7-{2-[4-(3-chlorophenyl)piperazinyl]ethoxy}-3-(4-hydroxyphenyl)chromen-4-one [PT-123] | 
 | 60% | CCOC(=O)COc1ccc(-c2coc3cc(OCC(=O)OCC)ccc3c2=O)cc1 [PT-10, ethyl 2-(3-{4-[(ethoxycarbonyl)methoxy]phenyl}-4-oxochromen-7-yloxy)acetate] | 
 | 22% | CCOC(=O)c1cccc(-c2coc3cc(OCc4noc(-c5cc(F)cc(C(F)(F)F)c5)n4)ccc3c2=O)c1 [PT-3, ethyl 3-[7-({5-[3-fluoro-5-(trifluoromethyl)phenyl](1,2,4-oxadiazol-3-yl)}methoxy)-4-oxochromen-3-yl]benzoate] | 
